Consider six compounds from patent US9907846B2 (priority 2013, dated 2018).

The test system of data set [1] is PC-3 prostate cancer cells. As to the kind of experiment: cells. Format: cell-based, human.
Description: The samples were 5-fold serially diluted in 6 steps starting from the concentration of 100 μg/ml, and incubated with PC-3 prostate cancer cells for 3 days. Then the cells were stained and read by the FMCA method.
Then the cells were stained and the cancer cell killing effect was read by the FMCA method.
In data set [2] the test system is HL-60 AML cells. As to the kind of experiment: FMCA cancer cell killing on HL-60 AML cells. It counts as cell-based, human. Particulars: 3 days, selected concentrations. The procedure:
The FMCA method is based on measurement of fluorescence generated from hydrolysis of fluorescein diacetate (FDA) to fluorescein by cells with intact plasma membranes. After above mentioned incubation for 3 days, the medium was removed by aspiration. After one wash with PBS, 100 μl/well of FDA dissolved in a physiological buffer (10 μg/ml) was added. The plates were incubated for 45 minutes and the generated fluorescence from each well was measured in a 96-well scanning fluorometer. The fluorescence is proportional to the number of intact cells in the well. Quality criteria for a successful analysis included a fluorescence signal in the control wells of more than five times of the mean blank value, a mean co-efficient of variation (CV) in the control wells of less than 30%.
The nanoparticles G3 and G3-DT formulated as described in Ex 1 and 2 were compared with the active component QHC form for the cancer cell killing effect. The samples were 5-fold serial diluted in 6 steps starting from 100 μg/ml, and incubated for 3 days with HL-60 AML cells. Then the cells were stained and read by the FMCA method.
HL-60 AML cells were exposed for 3 days at pre-determined concentrations of G3 and cytarabine separately and in combination of these two as shown on FIG. 7. Then the cells were stained and read for cancer cell killing effect by the FMCA method. […]

The subject of data set [3] is U937 cells.
Description: The read out was the particle formulation i.e. the extraction of the membrane into the quillaja micell, the anticancer cell killing effect tested on U937 cancer cells and the stimulation of IL-8 of the same cells (see Materials and Methods).
The Alamar Blue assay was used essentially according recommendations from the supplier (Serotec Ltd, Oxford, UK). Briefly, the cells were adjusted to 1×10^5 cells/ml in cell culture medium and 200 μl/well cells in 96-well plates (Nunc, Roskilde, Denmark). Then various QS formulations or medium alone (as control) was added in triplicates and incubated 3 days at 37° C. in humidified atmosphere containing 5% CO2. Alamar Blue was added to a final concentration of 10% to the wells after specified time points. The cell metabolic activity was subsequently measured up to 8 hrs.
Free form of QA is used as positive control. The cell metabolism activity is analyzed by Alamar Blue at 570 and 600 nm.
A short description of data set [4]: Water solubility of drugs incorporated into G3 particles. Particulars: drug alone or incorporated into G3 particles.
The nature of data set [5]: Detection of vitamin D3 in the water phase (DiaSorin Liaison). Format: physicochemical. The method, then: Samples with cholecalciferol (vitamin D3) incorporated in G3 particles were analysed at a University Hospital Laboratory on a Liaison automatic instrument. Although the assay (DiaSorin Liaison) is designed to measure 25-HO-D3 it has about one percent cross-reactivity with non-hydroxylated vitamin D3.
First, 50% cholesterol and 50% vitamin D3 were used to form the lipid membrane. Quil A was added into the water phase to generate the G3 particles (for details, please refer to Example 1). 100% Cholesterol and 100% Vitamin D3 in water were used as the controls. Samples with vitamin D3 incorporated in G3 particles were analysed at the Uppsala University Hospital Laboratory on a DiaSorin Liaison automatic instrument.

Several values for one entry are separate records, joined by “and”; a condition that tells them apart may be missing. Identical values can stand only once. Bounds are passed on as bounds.

Consider `CC(=O)O[C@@]12CO[C@@H]1C[C@H](O)[C@@]1(C)C(=O)[C@H](O)C3=C(C)[C@@H](OC(=O)[C@H](O)[C@@H](NC(=O)OC(C)(C)C)c4ccccc4)C[C@@](O)([C@@H](OC(=O)c4ccccc4)[C@H]21)C3(C)C` [docetaxel], for which, in data set [1] (PC-3 cells, 3 days, selected concentrations, FMCA), the cells killed is above 2%.
In the case of `Nc1ccn([C@@H]2O[C@H](CO)[C@@H](O)[C@@H]2O)c(=O)n1` [cytarabine], in data set [2], the cells killed was below 55%.
For orientation: EC50 means the concentration at which the effect is half-maximal. A low value points to higher potency in that assay. With `N[C@H]1C(O)O[C@H](CO)[C@H](O)[C@@H]1O` (stereo partly drawn) [Galactosamine], the 50% effective concentration (EC50) in data set [3] is 0.367 µg/mL and 0.389 µg/mL and 0.214 µg/mL.
As usually defined, the IC50 is the point on the concentration scale where inhibition reaches its midpoint. Read a low IC50 as inhibition by little substance. `CO[C@H]1C(=O)[C@]2(C)[C@@H](OC)C[C@H]3OC[C@@]3(OC(C)=O)[C@H]2[C@H](OC(=O)c2ccccc2)[C@]2(O)C[C@H](OC(=O)[C@H](O)[C@@H](NC(=O)OC(C)(C)C)c3ccccc3)C(C)=C1C2(C)C` [Cabazitaxel, cabazitaxel] yielded an IC50 in data set [1] (Homo sapiens, 72 h) of 25.5 µM.
`CS(=O)(=O)OCCCCOS(C)(=O)=O` [busulfan]: in data set [4], the “solubility in water (visual)” value is reported as “clear solutions”.
Regarding `C=C1CC[C@H](O)C/C1=C/C=C1\CCC[C@]2(C)[C@@H]([C@H](C)CCCC(C)C)CC[C@@H]12` [vitamin D3 control, cholecalciferol], the “vitamin D3 detected in the water phase” value in data set [5] is on record as “only trace amount”.
